In general, inhibition refers to the relative decrease from the control value, in per cent.

Consider one compound from publication PMC6934184, “Selective DNA-PKcs inhibition extends the therapeutic index of localized radiotherapy and chemotherapy” (The Journal of Clinical Investigation, 2019).

This assay deals with T1, LRRK2 (Homo sapiens, UniProt Q5S007).
T1 construct: purchased Thermo Fisher Scientific (Life Technologies) SelectScreen
Briefly: SelectScreen Adapta. The assay is classed as biochemical. The method, boiled down: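 Percent values come from Thermo SelectScreen profiling of NU5455, combining activity and binding assays. CSF1R was run in Z'LYTE format at Km app ATP, and CAMK1 in Adapta format with ATP listed at 10.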

T1 sequence (Q5S007 whole entry): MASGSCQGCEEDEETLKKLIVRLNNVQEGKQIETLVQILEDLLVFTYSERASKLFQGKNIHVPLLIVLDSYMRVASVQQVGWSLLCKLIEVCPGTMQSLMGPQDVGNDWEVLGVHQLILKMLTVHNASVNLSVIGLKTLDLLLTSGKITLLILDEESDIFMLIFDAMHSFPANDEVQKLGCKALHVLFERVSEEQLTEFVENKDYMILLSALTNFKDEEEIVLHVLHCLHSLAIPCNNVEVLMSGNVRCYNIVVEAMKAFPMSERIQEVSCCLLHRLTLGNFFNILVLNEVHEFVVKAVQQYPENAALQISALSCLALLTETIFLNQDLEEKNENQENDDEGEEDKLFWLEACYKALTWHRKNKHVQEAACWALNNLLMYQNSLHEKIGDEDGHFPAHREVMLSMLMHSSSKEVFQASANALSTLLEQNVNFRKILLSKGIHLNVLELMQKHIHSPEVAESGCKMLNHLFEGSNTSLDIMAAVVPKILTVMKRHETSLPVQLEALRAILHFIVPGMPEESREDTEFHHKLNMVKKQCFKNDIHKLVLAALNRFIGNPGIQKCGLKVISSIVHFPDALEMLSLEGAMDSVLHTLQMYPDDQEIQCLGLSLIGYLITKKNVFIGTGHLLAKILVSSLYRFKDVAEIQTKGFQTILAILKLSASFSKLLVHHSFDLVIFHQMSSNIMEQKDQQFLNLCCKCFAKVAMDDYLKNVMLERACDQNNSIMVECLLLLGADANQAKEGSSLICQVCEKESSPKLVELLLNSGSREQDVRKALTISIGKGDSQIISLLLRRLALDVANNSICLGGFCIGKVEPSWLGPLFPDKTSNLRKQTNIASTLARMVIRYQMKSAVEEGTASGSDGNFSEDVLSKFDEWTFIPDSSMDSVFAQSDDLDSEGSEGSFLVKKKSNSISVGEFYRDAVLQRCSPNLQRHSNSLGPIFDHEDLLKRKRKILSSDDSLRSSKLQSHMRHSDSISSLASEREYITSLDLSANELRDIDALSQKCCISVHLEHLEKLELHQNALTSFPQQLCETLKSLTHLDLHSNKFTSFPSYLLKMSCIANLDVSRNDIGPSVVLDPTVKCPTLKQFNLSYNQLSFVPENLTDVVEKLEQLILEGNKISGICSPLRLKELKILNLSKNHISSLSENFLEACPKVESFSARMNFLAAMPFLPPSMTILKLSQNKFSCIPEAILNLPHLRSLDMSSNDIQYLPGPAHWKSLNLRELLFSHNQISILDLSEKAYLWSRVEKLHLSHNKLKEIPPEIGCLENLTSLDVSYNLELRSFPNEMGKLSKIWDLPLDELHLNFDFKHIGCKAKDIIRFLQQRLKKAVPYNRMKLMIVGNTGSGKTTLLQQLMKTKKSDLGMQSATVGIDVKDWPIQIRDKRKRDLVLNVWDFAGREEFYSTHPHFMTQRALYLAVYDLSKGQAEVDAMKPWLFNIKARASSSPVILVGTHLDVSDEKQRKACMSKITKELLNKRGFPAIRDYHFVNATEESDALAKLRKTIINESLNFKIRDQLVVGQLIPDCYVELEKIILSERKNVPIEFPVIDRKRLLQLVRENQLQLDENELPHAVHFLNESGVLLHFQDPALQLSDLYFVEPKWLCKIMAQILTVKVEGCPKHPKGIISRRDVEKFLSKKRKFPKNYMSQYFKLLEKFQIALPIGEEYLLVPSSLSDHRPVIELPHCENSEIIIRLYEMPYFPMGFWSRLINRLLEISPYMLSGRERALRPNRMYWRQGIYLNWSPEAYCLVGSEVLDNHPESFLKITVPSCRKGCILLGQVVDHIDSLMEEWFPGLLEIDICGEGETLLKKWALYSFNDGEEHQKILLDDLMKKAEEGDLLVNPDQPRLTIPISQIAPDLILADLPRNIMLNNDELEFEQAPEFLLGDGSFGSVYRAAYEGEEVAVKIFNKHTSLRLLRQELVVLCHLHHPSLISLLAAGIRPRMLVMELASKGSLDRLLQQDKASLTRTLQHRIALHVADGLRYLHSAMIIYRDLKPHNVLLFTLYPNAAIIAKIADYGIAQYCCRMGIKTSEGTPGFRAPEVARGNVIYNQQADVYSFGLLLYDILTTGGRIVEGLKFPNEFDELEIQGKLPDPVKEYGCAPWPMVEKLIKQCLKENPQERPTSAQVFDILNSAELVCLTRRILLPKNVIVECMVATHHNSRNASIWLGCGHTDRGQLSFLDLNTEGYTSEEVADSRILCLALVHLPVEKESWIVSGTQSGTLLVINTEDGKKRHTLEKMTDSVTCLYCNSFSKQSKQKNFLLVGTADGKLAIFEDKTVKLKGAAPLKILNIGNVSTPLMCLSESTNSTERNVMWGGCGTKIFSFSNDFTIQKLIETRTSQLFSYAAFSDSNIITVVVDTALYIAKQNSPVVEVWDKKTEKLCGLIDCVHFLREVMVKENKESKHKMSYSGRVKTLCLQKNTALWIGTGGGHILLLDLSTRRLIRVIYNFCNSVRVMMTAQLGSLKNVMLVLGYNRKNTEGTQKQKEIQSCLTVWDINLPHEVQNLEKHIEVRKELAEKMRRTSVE

`CN(C(=O)CN1CCOCC1)c1ccc2sc3c(-c4cccc5c(=O)cc(N6CC7CCC(C6)O7)oc45)cccc3c2c1` [NU5455] had an inhibition at 1 µM of 1.7%.
